Consider 6 compounds from article PMC10962654 (Journal of Food and Drug Analysis, 2023).

Where two headings read alike, the source gives them in different places.

For data set [1] the following is noted: MI/R rats, plasma, n = 6.
For a further data set, the system named is cTn I. Nature of the data set: Plasma cTn I. Type of data set: in vivo, Sprague Dawley rats. The following applies: MI/R rats, Sigmoid-Emax model.
The next data set has as its system CK-MB. Nature of the data set: Plasma CK-MB. It counts as in vivo, Sprague Dawley rats. The following applies: MI/R rats, Sigmoid-Emax model.
In another data set the test system is IMA. Kind of data set: Plasma IMA. The following applies: MI/R rats, Sigmoid-Emax model. It counts as in vivo, Sprague Dawley rats.
A further data set deals with α-HBDH. Nature of the data set: Plasma α-HBDH. It counts as in vivo, Sprague Dawley rats. The following applies: MI/R rats, Sigmoid-Emax model.

In the case of `O=c1c(O[C@@H]2O[C@H](CO)[C@@H](O)[C@H](O)[C@H]2O)c(-c2ccc(O)cc2)oc2cc(O)cc(O)c12` [Kaempferol-3-O-glucoside, kaempferol-3-O-glucoside], in data set [1] (GHI-H (GHI 10 mL/kg, i.v.)), the area under the curve AUC(0-t) came to 116.314 ± 56.651 ng·h/mL, the “AUC(0-∞)” value amounted to 122.652 ± 56.297 ng·h/mL, the CL2 is 141.2 ± 10.2 mL/min/kg and the K10 came to 9.636 ± 0.934 h⁻¹. Moreover, in data set [1] (GHI-H (GHI 10 mL/kg, i.v.)), the K12 came to 17.927 ± 1.512 h⁻¹, the K21 was found to be 6.02 ± 0.636 h⁻¹, the Q amounted to 141.2 ± 10.2 mL/min/kg and the V1 is listed as 0.475 ± 0.044 L/kg. Also, in data set [1] (GHI-H (GHI 10 mL/kg, i.v.)), the V2 is 1.419 ± 0.173 L/kg, the t1/2α stood at 1.32 ± 0.12 min and the t1/2β came out at 23.1 ± 3.18 min. Besides, in data set [1] (GHI-L (GHI […], i.v.)), the area under the curve AUC(0-t) was found to be 23.576 ± 12.633 ng·h/mL, the “AUC(0-∞)” value was found to be 25.109 ± 12.653 ng·h/mL, the CL1 was 87.58 ± 9.88 mL/min/kg and the CL2 is 133.3 ± 27.68 mL/min/kg. For the same compound, in data set [1] (GHI-L (GHI […], i.v.)), the K10 was 10.09 ± 2.541 h⁻¹, the K12 was found to be 15.148 ± 3.65 h⁻¹, the K21 was 2.832 ± 0.492 h⁻¹ and the Q was 133.3 ± 27.67 mL/min/kg. In data set [1] (GHI-L (GHI […], i.v.)), the V1 is recorded as 0.54 ± 0.101 L/kg, the V2 was found to be 2.822 ± 0.3 L/kg, the t1/2α is 1.56 ± 0.3 min and the t1/2β turned out to be 40.4 ± 5.64 min. Moreover, in data set [1] (GHI-M (GHI 5 mL/kg, i.v.)), the “AUC(0-t)” value turned out to be 31.49 ± 12.303 ng·h/mL, the “AUC(0-∞)” value was 35.448 ± 11.949 ng·h/mL, the CL1 worked out at 68.72 ± 8.47 mL/min/kg and the CL2 was found to be 79.43 ± 17.82 mL/min/kg. Also, in data set [1] (GHI-M (GHI 5 mL/kg, i.v.)), the K10 stood at 8.042 ± 3.472 h⁻¹, the K12 came out at 9.709 ± 5.342 h⁻¹, the K21 was 3.087 ± 1.742 h⁻¹ and the Q was 79.4 ± 17.78 mL/min/kg. In data set [1] (GHI-M (GHI 5 mL/kg, i.v.)), this compound returned a V1 of 0.59 ± 0.22 L/kg, a V2 of 1.87 ± 0.735 L/kg, a t1/2α of 2.7 ± 1.44 min and a t1/2β of 41.5 ± 21.7 min. In addition, the “Emax (maximal effect) of optimal PK/PD equation, ΔcTn I” value (“Emax (maximal effect) … ΔcTn I” for short) in the data set with cTn I (GHI-L ([…], i.v.)) is listed as 4.625.

`O=c1c(O[C@@H]2O[C@H](CO)[C@H](O)[C@H](O)[C@H]2O)c(-c2ccc(O)c(O)c2)oc2cc(O)cc(O)c12` [Hyperoside, hyperoside]: in data set [1] (GHI-H (GHI 10 mL/kg, i.v.)), the CL1 was 81.92 ± 12 mL/min/kg, the CL2 turned out to be 120.9 ± 37.88 mL/min/kg, the K10 stood at 21.205 ± 16.45 h⁻¹ and the K12 stood at 26.235 ± 8.526 h⁻¹. In data set [1] (GHI-H (GHI 10 mL/kg, i.v.)), this compound yielded a K21 of 6.031 ± 0.862 h⁻¹, a Q of 121 ± 37.85 mL/min/kg, a V1 of 0.309 ± 0.126 L/kg and a V2 of 1.207 ± 0.352 L/kg. Moreover, the t1/2α in data set [1] (GHI-H (GHI 10 mL/kg, i.v.)) was 0.9 ± 0.24 min. Besides, in data set [1] (GHI-L (GHI […], i.v.)), the CL1 stood at 88.93 ± 8.22 mL/min/kg, the CL2 was found to be 144.8 ± 10.5 mL/min/kg, the K10 came to 11.259 ± 2.48 h⁻¹ and the K12 worked out at 18.242 ± 3.358 h⁻¹. In data set [1] (GHI-L (GHI […], i.v.)), this compound came in with a K21 of 2.929 ± 0.214 h⁻¹, a Q of 144.8 ± 10.5 mL/min/kg, a V1 of 0.493 ± 0.117 L/kg and a V2 of 2.979 ± 0.292 L/kg. For the same compound, the t1/2α in data set [1] (GHI-L (GHI […], i.v.)) worked out at 1.38 ± 0.3 min. In data set [1] (GHI-M (GHI 5 mL/kg, i.v.)), this compound registered a CL1 of 76.58 ± 3.37 mL/min/kg, a CL2 of 76.22 ± 11.2 mL/min/kg, a K10 of 14.742 ± 5.174 h⁻¹ and a K12 of 14.086 ± 2.688 h⁻¹. In data set [1] (GHI-M (GHI 5 mL/kg, i.v.)), the K21 came out at 4.889 ± 0.407 h⁻¹, the Q stood at 76.2 ± 11.2 mL/min/kg, the V1 came out at 0.34 ± 0.1 L/kg and the V2 is reported as 0.935 ± 0.119 L/kg. The compound also showed a t1/2α in data set [1] (GHI-M (GHI 5 mL/kg, i.v.)) of 1.38 ± 0.3 min.

Consider kaempferol-3-O-rutinoside, for which the “Emax (maximal effect) of optimal PK/PD equation, ΔCK-MB” value with CK-MB (GHI-L ([…], i.v.)) was 11.04.

With `O=C(/C=C/c1ccc(O)c(O)c1)O[C@@H]1C[C@](O)(C(=O)O)C[C@@H](O)[C@H]1O` [Chlorogenic acid, chlorogenic acid], in data set [1] (GHI-H (GHI 10 mL/kg, i.v.)), the CL1 came to 42.57 ± 1.53 mL/min/kg, the CL2 stood at 173.38 ± 15.2 mL/min/kg, the K10 amounted to 6.701 ± 1.078 h⁻¹ and the K12 was determined as 27.459 ± 6.003 h⁻¹. In data set [1] (GHI-H (GHI 10 mL/kg, i.v.)), this compound had a K21 of 8.203 ± 0.823 h⁻¹, a Q of 173.3 ± 15.2 mL/min/kg, a V1 of 0.389 ± 0.059 L/kg and a V2 of 1.273 ± 0.103 L/kg. In addition, the t1/2α in data set [1] (GHI-H (GHI 10 mL/kg, i.v.)) stood at 1.08 ± 0.18 min. In data set [1] (GHI-L (GHI […], i.v.)), this compound returned a CL1 of 44.48 ± 2.82 mL/min/kg, a CL2 of 150 ± 15.1 mL/min/kg, a K10 of 4.274 ± 1.912 h⁻¹ and a K12 of 14.327 ± 4.021 h⁻¹. In data set [1] (GHI-L (GHI […], i.v.)), this compound displayed a K21 of 3.902 ± 0.294 h⁻¹, a Q of 149.8 ± 15.1 mL/min/kg, a V1 of 0.672 ± 0.201 L/kg and a V2 of 2.304 ± 0.146 L/kg. In addition, the t1/2α in data set [1] (GHI-L (GHI […], i.v.)) was determined as 2.04 ± 0.54 min. Moreover, in data set [1] (GHI-M (GHI 5 mL/kg, i.v.)), the CL1 was determined as 32.32 ± 2.43 mL/min/kg, the CL2 was determined as 120 ± 8.42 mL/min/kg, the K10 was determined as 3.987 ± 0.663 h⁻¹ and the K12 came to 14.709 ± 1.766 h⁻¹. Further, in data set [1] (GHI-M (GHI 5 mL/kg, i.v.)), the K21 came to 4.84 ± 0.29 h⁻¹, the Q was 119.8 ± 8.4 mL/min/kg, the V1 is recorded as 0.496 ± 0.08 L/kg and the V2 is recorded as 1.49 ± 0.142 L/kg. In data set [1] (GHI-M (GHI 5 mL/kg, i.v.)), this compound returned a t1/2α of 1.86 ± 0.18 min. The “Emax (maximal effect) of optimal PK/PD equation, ΔIMA” value in the data set on IMA (GHI-L ([…], i.v.)) is recorded as 28.211. For the same compound, the “Emax (maximal effect) … ΔcTn I” value with cTn I (GHI-M (5 mL/kg, i.v.)) worked out at 7.28. In addition, the “Emax (maximal effect) of optimal PK/PD equation, Δα-HBDH” value (shortened to “Emax (maximal effect) … Δα-HBDH”) in the data set with α-HBDH (GHI-H (10 mL/kg, i.v.)) is on record as 86.524. Further, in the data set with α-HBDH (GHI-L ([…], i.v.)), the “Emax (maximal effect) … Δα-HBDH” value was 48.745. Besides, the “Emax (maximal effect) … Δα-HBDH” value with α-HBDH (GHI-M (5 mL/kg, i.v.)) is reported as 72.774.

As to `C[C@@H]1O[C@@H](OC[C@H]2O[C@@H](Oc3c(-c4ccc(O)c(O)c4)oc4cc(O)cc(O)c4c3=O)[C@H](O)[C@@H](O)[C@@H]2O)[C@H](O)[C@H](O)[C@H]1O` [Rutin, rutin], in data set [1] (GHI-H (GHI 10 mL/kg, i.v.)), the CL1 was 46.88 ± 7.65 mL/min/kg, the CL2 is 111.9 ± 61.47 mL/min/kg, the K10 was 25.55 ± 19.846 h⁻¹ and the K12 came to 42.24 ± 19.866 h⁻¹. For the same compound, in data set [1] (GHI-H (GHI 10 mL/kg, i.v.)), the K21 is 7.333 ± 1.971 h⁻¹, the Q came out at 111.8 ± 61.52 mL/min/kg, the V1 came to 0.239 ± 0.209 L/kg and the V2 amounted to 0.855 ± 0.277 L/kg. Further, the t1/2α in data set [1] (GHI-H (GHI 10 mL/kg, i.v.)) worked out at 0.72 ± 0.36 min. Further, in data set [1] (GHI-L (GHI […], i.v.)), the CL1 stood at 63.25 ± 8.27 mL/min/kg, the CL2 is 104.4 ± 13.5 mL/min/kg, the K10 was found to be 10.125 ± 0.978 h⁻¹ and the K12 was 16.754 ± 1.998 h⁻¹. In data set [1] (GHI-L (GHI […], i.v.)), this compound came in with a K21 of 3.748 ± 0.381 h⁻¹, a Q of 104.4 ± 13.6 mL/min/kg, a V1 of 0.379 ± 0.071 L/kg and a t1/2α of 1.44 ± 0.12 min. In data set [1] (GHI-M (GHI 5 mL/kg, i.v.)), the CL1 turned out to be 47.87 ± 4.4 mL/min/kg, the CL2 is 83.63 ± 11.1 mL/min/kg, the K10 worked out at 6.448 ± 1.858 h⁻¹ and the K12 was determined as 11.318 ± 3.536 h⁻¹. In data set [1] (GHI-M (GHI 5 mL/kg, i.v.)), this compound returned a K21 of 4.751 ± 1.024 h⁻¹, a Q of 83.63 ± 11.1 mL/min/kg, a V1 of 0.466 ± 0.88 L/kg and a V2 of 1.075 ± 0.133 L/kg. The compound also returned a t1/2α in data set [1] (GHI-M (GHI 5 mL/kg, i.v.)) of 2.1 ± 0.6 min. The “Emax (maximal effect) … ΔcTn I” value in the data set with cTn I (GHI-L ([…], i.v.)) was determined as 4.632.

As to hydroxysafflor yellow A, the “Emax (maximal effect) of optimal PK/PD equation, ΔIMA” value with IMA (GHI-L ([…], i.v.)) is 31.473; in the data set on IMA (GHI-M (5 mL/kg, i.v.)) it was 49.851. Also, the “Emax (maximal effect) … ΔcTn I” value with cTn I (GHI-L ([…], i.v.)) is recorded as 4.628; in the data set with cTn I (GHI-M (5 mL/kg, i.v.)), 7.341. The “Emax (maximal effect) of optimal PK/PD equation, ΔCK-MB” value is 11.082 in the data set on CK-MB (GHI-L ([…], i.v.)) and 27.2 with CK-MB (GHI-M (5 mL/kg, i.v.)). Further, the “Emax (maximal effect) … Δα-HBDH” value is recorded as 49.45 in the data set with α-HBDH (GHI-L ([…], i.v.)) and 88.223 with α-HBDH (GHI-M (5 mL/kg, i.v.)).
